Marks after values point to notes of the source that are not given here.
Molecular target: T1, recombinant Axl tyrosine kinase (Homo sapiens, UniProt P30530)
T1 construct: encompassing amino acids 473 to 894 of Axl; GST (N); made in house; host or cells: SF126 insect cells
T1 sequence (P30530 473-894): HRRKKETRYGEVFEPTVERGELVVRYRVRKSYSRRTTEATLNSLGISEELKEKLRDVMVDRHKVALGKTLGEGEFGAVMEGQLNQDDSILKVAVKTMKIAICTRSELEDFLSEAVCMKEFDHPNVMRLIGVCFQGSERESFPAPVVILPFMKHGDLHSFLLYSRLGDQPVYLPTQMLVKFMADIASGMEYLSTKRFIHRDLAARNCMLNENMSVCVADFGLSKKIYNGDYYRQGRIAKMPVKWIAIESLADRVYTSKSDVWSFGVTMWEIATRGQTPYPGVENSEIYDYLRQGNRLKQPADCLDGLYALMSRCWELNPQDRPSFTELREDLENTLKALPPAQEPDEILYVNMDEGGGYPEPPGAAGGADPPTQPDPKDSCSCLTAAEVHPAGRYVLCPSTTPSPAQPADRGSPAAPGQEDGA
Assay: In vitro Axl kinase assay (AlphaScreen), Test (a)
Assay type: biochemical
Settings: 1 μM; mean calculated from a larger number of replicates than the first value

In the case of `Nc1ncc(-c2ccc(CN3CCOCC3)cc2)cc1-c1nc2ccncc2o1` [Example 11A.1], the “% Axl tyrosine kinase inhibition at 1 μM concentration (second value, †)” value is reported as 99.4%.

Same assay, conditions: 1 μM; mean calculated from a larger number of replicates than the first value; read-out: % Axl tyrosine kinase inhibition at 1 μM concentration (second value, †)

With `CN1CCC(n2cc(-c3cnc(N)c(-c4nc5ccccc5o4)c3)cn2)CC1` [Example 3, 3-(1,3-Benzoxazol-2-yl)-5-[1-(1-methyl-4-piperidyl)pyrazol-4-yl]pyridin-2-amine] the inhibition at 1 µM was 99.8%.

Same assay, conditions: test compound at 1 μM; first value quoted

Compared with `N#CCc1cccc(-c2cnc(N)c(-c3nc4ccccc4o3)c2)c1` [Example 2.47], `NCc1cccc(-c2cnc(N)c(-c3nc4ccccc4o3)c2)c1` [Example 2.4] is higher in “% Axl tyrosine kinase inhibition at 1 μM concentration” value: 98.0% for the first, 99.1% for the second.

Compared with `Nc1ncc(-c2cccc(CN3CCCCC3)c2)cc1-c1nc2ncccc2o1` [Example 10A.11], `Nc1ncc(-c2cccc(CN3CCCCC3)c2)cc1-c1nc2cccnc2o1` [Example 9A.9] is higher in “% Axl tyrosine kinase inhibition at 1 μM concentration” value: 88.4% for the first, 95.3% for the second.

Compared with `Nc1ncc(-c2ccc(S(=O)(=O)NCCO)cc2)cc1-c1nc2cccnc2o1` [Example 9A.14], `CN1CC(NC(=O)c2ccc(-c3cnc(N)c(-c4nc5cccnc5o4)c3)cc2)C1` [Example 45A.30] is higher in “% Axl tyrosine kinase inhibition at 1 μM concentration” value: 97.0% for the first, 97.4% for the second.

First: COCc1nn(C2CCN(C)CC2)cc1-c1cnc(N)c(-c2nc3c(C#N)cccc3o2)c1 [Example 41.39]
Second: CN(C)C(=O)CN1CCC(n2cc(-c3cnc(N)c(-c4nc5ccccc5o4)c3)cn2)CC1 [Example 53.8]
The “% Axl tyrosine kinase inhibition at 1 μM concentration” value of the first is higher: 100.0% for the first, 99.9% for the second.

Compared with `Nc1ncc(-c2ccc(C(=O)N3CCN(CCN4CCCC4)CC3)cc2)cc1-c1nc2cccnc2o1` [Example 45A.68], `Nc1ncc(-c2ccc(C(=O)N3CCCCC3CCN3CCCC3)cc2)cc1-c1nc2cccnc2o1` (centres unmarked) [Example 45A.29] is higher in “% Axl tyrosine kinase inhibition at 1 μM concentration” value: 91.3% for the first, 98.8% for the second.

Going from `CC(=O)NCCC(=O)N1CCC(n2cc(-c3cnc(N)c(-c4nc5ncccc5o4)c3)cn2)CC1` [Example 59.4] to `C[C@H](O)C(=O)N1CCC(n2cc(-c3cnc(N)c(-c4nc5ncccc5o4)c3)cn2)CC1` [Example 57.3], the “% Axl tyrosine kinase inhibition at 1 μM concentration” value falls from 98.9% to 98.7%.

Going from `Nc1ncc(-c2ccc(C(=O)N3CCC[C@H](N)C3)cc2)cc1-c1nc2cccnc2o1` [Example 45A.88] to `CN(C)C1CCCN(C(=O)c2ccc(-c3cnc(N)c(-c4nc5cccnc5o4)c3)cc2)C1` (centres unmarked) [Example 45A.20], the “% Axl tyrosine kinase inhibition at 1 μM concentration” value falls from 99.8% to 98.9%.

First: Nc1ncc(-c2cnn(C3CCOCC3)c2)cc1-c1nc2ccccc2o1 [Example 27.7]
Second: CN1CC(n2cc(-c3cnc(N)c(-c4nc5ccccc5o4)c3)cn2)C1 [Example 41.8]
The “% Axl tyrosine kinase inhibition at 1 μM concentration” value of the first is higher: 99.8% for the first, 99.7% for the second.

Going from `Nc1ncc(-c2cccc(N3CCCC3)c2)cc1-c1nc2ccccc2o1` [Example 2.32] to `NC(=O)c1cccc(-c2cnc(N)c(-c3nc4ccccc4o3)c2)c1` [Example 2.34], the “% Axl tyrosine kinase inhibition at 1 μM concentration” value rises from 22.4% to 67.3%.

Compared with `CN1CCC(CNC(=O)c2ccc(-c3cnc(N)c(-c4nc5cccnc5o4)c3)cc2)CC1` [Example 45A.25], `NCC1CCN(C(=O)c2ccc(-c3cnc(N)c(-c4nc5cccnc5o4)c3)cc2)CC1` [Example 45A.78] is lower in “% Axl tyrosine kinase inhibition at 1 μM concentration” value: 97.8% for the first, 97.7% for the second.

Compared with `Nc1ncc(-c2ccc(OCCN3CCOCC3)cc2)cc1-c1nc2ncccc2o1` [Example 43B.6], `Nc1ncc(-c2ccc(OCCCN3CCCC3)cc2)cc1-c1nc2ncccc2o1` [Example 43B.18] is higher in “% Axl tyrosine kinase inhibition at 1 μM concentration” value: 96.4% for the first, 99.9% for the second.

First: Nc1ncc(-c2ccc(CN3CCOCC3)cc2)cc1-c1nc2cccnc2o1 [Example 9A.21]
Second: Nc1ncc(-c2ccc(CN3CCOCC3)cc2)cc1-c1nc2ccncc2o1 [Example 11A.1]
The “% Axl tyrosine kinase inhibition at 1 μM concentration” value of the first is lower: 95.6% for the first, 99.6% for the second.

Compared with `Nc1ncc(-c2ccc(OC3CCNC3)cc2)cc1-c1nc2ncccc2o1` (centres unmarked) [Example 43B.27], `COc1cc(-c2cnc(N)c(-c3nc4ncccc4o3)c2)ccc1OCC1CCCNC1` (centres unmarked) [Example 43C.33] is higher in “% Axl tyrosine kinase inhibition at 1 μM concentration” value: 98.2% for the first, 99.8% for the second.

Going from `Nc1ncc(-c2cnn(C3CCCNC3)c2)cc1-c1nc2ccccc2o1` (centres unmarked) [Example 29.6] to `CN1CCN(CCCn2cc(-c3cnc(N)c(-c4nc5ccccc5o4)c3)cn2)CC1` [Example 31.5], the “% Axl tyrosine kinase inhibition at 1 μM concentration” value rises from 99.9% to 100.0%.

Compared with `COc1cc(-c2cnc(N)c(-c3nc4ncccc4o3)c2)ccc1OCCCN1CC(C)NC(C)C1` (centres unmarked) [Example 43C.34], `COc1cc(-c2cnc(N)c(-c3nc4ncccc4o3)c2)ccc1OCCCN1CCN(S(C)(=O)=O)CC1` [Example 43C.15] is lower in “% Axl tyrosine kinase inhibition at 1 μM concentration” value: 99.1% for the first, 97.2% for the second.

Going from `N#CCc1ccc(-c2cnc(N)c(-c3nc4ccccc4o3)n2)cc1` [Example 20.19] to `COCc1cccc(-c2cnc(N)c(-c3nc4ccccc4o3)n2)c1` [Example 20.17], the “% Axl tyrosine kinase inhibition at 1 μM concentration” value rises from 98.3% to 98.8%.

Compared with `CN1CCN(c2ncc(-c3cnc(N)c(-c4nc5cccnc5o4)c3)s2)CC1` [Example 25.12], `N#Cc1cccc(-c2cnc(N)c(-c3nc4cccnc4o3)c2)c1` [Example 9A.1] is higher in “% Axl tyrosine kinase inhibition at 1 μM concentration” value: 38.2% for the first, 89.8% for the second.

Going from `Nc1ncc(-c2ccc(C(=O)NCCO)cc2)cc1-c1nc2ncccc2o1` [Example 10A.5] to `CN(C)CCCNC(=O)c1ccc(-c2cnc(N)c(-c3nc4ncccc4o3)c2)cc1` [Example 10A.12], the “% Axl tyrosine kinase inhibition at 1 μM concentration” value rises from 91.4% to 99.0%.

Compared with `CC(C)N1CCC(CN(C)C(=O)c2ccc(-c3cnc(N)c(-c4nc5cccnc5o4)c3)cc2)C1` (centres unmarked) [Example 45A.42], `COCCN1CCC(NC(=O)c2ccc(-c3cnc(N)c(-c4nc5cccnc5o4)c3)cc2)CC1` [Example 45A.10] is lower in “% Axl tyrosine kinase inhibition at 1 μM concentration” value: 99.3% for the first, 97.5% for the second.

First: CS(=O)(=O)Nc1ccc(-c2cnc(N)c(-c3nc4ccccc4o3)c2)cc1 [Example 2.27]
Second: Nc1ncc(-c2ccc(CO)s2)cc1-c1nc2cnccc2o1 [Example 8A.5]
The “% Axl tyrosine kinase inhibition at 1 μM concentration” value of the first is higher: 98.0% for the first, 96.8% for the second.

In the case of `Nc1ncc(-c2ccc(OCCCN3CCNCC3)cc2)cc1-c1nc2ncccc2o1` [Example 43B.38], the “% Axl tyrosine kinase inhibition at 1 μM concentration” value is reported as 8.1^†††† %.

Same assay, conditions: test compound at 1 μM; first value quoted; read-out: % Axl tyrosine kinase inhibition at 1 μM concentration

`Nc1ncc(-c2cnn(C3CCNCC3)c2)cc1-c1nc2ncccc2o1` [Example 10, 3-Oxazolo[4,5-b]pyridin-2-yl-5-[1-(4-piperidyl)pyrazol-4-yl]pyridin-2-amine] and `Nc1ncc(-c2cnn(C3CCNCC3)c2)cc1-c1nc2cccnc2o1` [Example 9, 3-Oxazolo[5,4-b]pyridin-2-yl-5-[1-(4-piperidyl)pyrazol-4-yl]pyridin-2-amine] are the same in inhibition at 1 µM: 98.8% for the first, 98.8% for the second.

First: COc1cc(N2CCN(C)CC2)ccc1-c1cnc(N)c(-c2nc3ncccc3o2)c1 [Example 25.6, 5-[2-methoxy-4-(4-methylpiperazin-1-yl)phenyl]-3-oxazolo[4,5-b]pyridin-2-yl-pyridin-2-amine]
Second: COc1cc(-c2cnc(N)c(-c3nc4ncccc4o3)c2)ccc1OCCN1CCOCC1 [Example 43C.2, 5-[3-methoxy-4-(2-morpholinoethoxy)phenyl]-3-oxazolo[4,5-b]pyridin-2-yl-pyridin-2-amine]
The inhibition at 1 µM of the first is higher: 99.5% for the first, 97.1% for the second.

Going from `CNC(=O)[C@@H]1C[C@@H](n2cc(-c3cnc(N)c(-c4nc5ccccc5o4)c3)cn2)CN1` [Example 51, (2S,4R)-4-[4-[6-amino-5-(1,3-benzoxazol-2-yl)-3-pyridyl]pyrazol-1-yl]-N-methyl-pyrrolidine-2-carboxamide] to `CN1CCC(n2cc(-c3cnc(N)c(-c4nc5ccccc5o4)c3)cn2)CC1` [Example 3, 3-(1,3-Benzoxazol-2-yl)-5-[1-(1-methyl-4-piperidyl)pyrazol-4-yl]pyridin-2-amine], the inhibition at 1 µM rises from 99.9% to 100%.

First: CN1CCC(n2cc(-c3cnc(N)c(-c4nc5ccccc5o4)n3)cn2)CC1 [Example 18, 3-(1,3-benzoxazol-2-yl)-5-[1-(1-methyl-4-piperidyl)pyrazol-4-yl]pyrazin-2-amine]
Second: COc1ccc2oc(-c3cc(-c4cnn(C5CCN(C)CC5)c4)cnc3N)nc2c1 [Example 35A, 3-(5-methoxy-1,3-benzoxazol-2-yl)-5-[1-(1-methyl-4-piperidyl)pyrazol-4-yl]pyridin-2-amine]
The inhibition at 1 µM of the first is lower: 99.3% for the first, 100% for the second.

First: CNC(=O)c1cccc2nc(-c3cc(-c4cnn(C5CCNCC5)c4)cnc3N)oc12 [Example 70, 2-[2-amino-5-[1-(4-piperidyl)pyrazol-4-yl]-3-pyridyl]-N-methyl-1,3-benzoxazole-7-carboxamide]
Second: Nc1ncc(-c2ccc(N3CCNCC3)nc2)cc1-c1nc2ccccc2o1 [Example 2.19, 3-(1,3-Benzoxazol-2-yl)-5-[6-(piperazin-1-yl)-3-pyridyl]pyridin-2-amine]
The inhibition at 1 µM of the first is higher: 99.9% for the first, 99.8% for the second.

Compared with `CN(C)Cc1ccc(-c2cnc(N)c(-c3nc4ccccc4o3)c2)cc1` [Example 1, 3-Benzoxazol-2-yl-5-[4-(dimethylaminomethyl)phenyl]pyridin-2-amine], `CCNS(=O)(=O)c1cccc(-c2cnc(N)c(-c3nc4ccccc4o3)c2)c1` [Example 48, 3-[6-Amino-5-(1,3-benzoxazol-2-yl)-3-pyridyl]-N-ethyl-benzenesulphonamide] is lower in inhibition at 1 µM: 99.8% for the first, 93.5% for the second.

Same assay, conditions: test compound at 30 μM

`Nc1ncc(-c2ccc(OCCCN3CCNCC3)cc2)cc1-c1nc2ncccc2o1` [Example 43B.38] was tested, and the “% of Axl tyrosine kinase activity inhibited at a concentration of 30 μM” value was “^††††the compound disclosed in Example 43B.38 inhibited 95.3% of Axl tyrosine kinase activity at a concentration of 30 μM”.

Reference: patent US8017611B2, “Pyridine and pyrazine derivatives -083” (AstraZeneca AB, priority 2007, dated 2011)
